Source: the NIST ThermoML archive (doi:10.1021/acs.jced.5b00932)
Numbers after ± are expanded uncertainties. Each block holds one compound with its values, some of them ahead of it.

Experiment: wn = mass fraction of the nth substance listed
Details: 298.15 K, 101 kPa, Liquid, Pycnometric method

mass density (w1 = 0.3108): 1314.6 ± 2.2 kg/m3
SMILES: [Cl][Al]([Cl])[Cl] [aluminum chloride] + O

mass density (w1 = 0.4647): 1456.1 ± 2.3 kg/m3
SMILES: [Ca+2].[Cl-].[Cl-] [calcium chloride] + O

mass density (w1 = 0.5069): 1521.5 ± 3.3 kg/m3
SMILES: [Cl][Fe]([Cl])[Cl] [ferric chloride] + O
